# Results from paper PMC7961380, “A Systematic Study of the In Vitro Pharmacokinetics and Estimated Human In Vivo Clearance of Indole and Indazole-3-Carboxamide Synthetic Cannabinoid Receptor Agonists Detected on the Illicit Drug Market” (Molecules, 2021).
# How the values were obtained:
# [1] = HLM, ref 14 (THJ-018, THJ-2201), 15 (NNEI, MN-18), 106 (NM-2201), 107 (BIM-2201), 108 (STS-135), 16 (AB-PINACA, 5F-AB-PINACA), 54 (5F-MDMB-PINACA), 69 (AB-FUBINACA), 17 (ADB-FUBINACA), 97 (FDU-PB-22, FUB-PB-22), cited from earlier work; for CLint micr / t1/2: 95 (Cumyl-PICA, 5F-Cumyl-PICA), 109 (5F-APP-PICA, 5F-APP-PINACA; for CLint micr: 73 (5F-AMB-PINACA); for t1/2 / CLint: 57 (AMB-4en-PICA); for t1/2: 73 (AMB-PINACA, 5F-AMB-PINACA)
# [2] = system: pooled human cryopreserved hepatocytes (pHHeps); assay: Metabolic stability, pooled human cryopreserved hepatocyte incubations
# [3] = Metabolic stability, pooled human liver microsome incubations
# Experimental: Total incubation volume was 500 µL. Procedure: Test compound working solutions (50 µM in potassium phosphate buffer (pH 7.4)) were prepared (<1% DMSO). pHLM were thawed and diluted in potassium phosphate buffer (pH 7.4). […] Reactions were quenched in 200 µL ACN spiked with donepezil (IS, 50 ng mL^−1). […] Samples were analysed by UPLC-MS/MS in a 96 deep-well 2 mL plate. Each SCRA was incubated at least in triplicate but additional incubations were carried out across a number of analytical batches, giving greater replication and a greater understanding of system variability. Microsomal scaling factors used for human liver microsome incubations in the literature vary. Intrinsic clearance and predicted in vivo clearance rates calculated using alternative scaling factors found in the literature is provided in Section S6 of the supplementary information, to aid comparison of data between publications.
# Equations used for in vitro intrinsic clearance calculation and human in vivo clearance […]
# The equations used for in vitro intrinsic clearance calculation and human in vivo clearance estimation […]
# Microsomal clearance (HLM incubations) in mL min-1 mg microsomal protein-1 [3]
# Intrinsic clearance (whole-liver dimensions) (HLM incubations) in mL min-1 kg-1 [3] CL = k x V x [Liver](g) x SF Eqn. 7 […]
# mg g microsomal protein-1 [7]
# Intrinsic clearance (whole-liver dimensions) (HHep incubations) in mL min-1 kg-1 [4] CL = k x V x hepatocytes/g liver x [Liver](g) Eqn. 8 […]
# Where: hepatocytes/g liver = 107x10^6 cells/g liver
# Hepatic clearance in mL min-1 kg-1 [3]
# […] Eqn. 9
# Where: Q = hepatic blood flow, 21 mL min-1 kg-1 [9]; fu = fraction unbound (plasma); CLint = […]
# Estimated human hepatic extraction ratio [5]
# Intrinsic clearance data – pooled human liver microsome incubations […]
# table S4-28. Intrinsic clearance and predicted in vivo data calculated using alternative microsomal scaling factors found in the literature – 32 [10] and 45 [11] mg microsomal protein per gram liver – are provided in tables S29 and S30, respectively.
# [4] = Plasma protein binding by equilibrium dialysis; type: in vitro ADME, human; settings: human, pooled human plasma, pH 7.4, equilibrium dialysis 5 h, 37 °C, 10 µg mL^−1; read-out: PPB (%) (converted)
# Experimental: Plasma protein binding was assessed by equilibrium dialysis in a 96-well dialysis block (HTDialysis, Ledyard, CT, USA). Dialysis membranes (12–14 kDa) were soaked in deionised water for at least 60 min. Membranes were soaked overnight at 4 °C in ethanol:water 20:80% v/v and then rinsed with deionised water immediately prior to use. […] Spiked plasma (150 µL) was dialysed against isotonic phosphate buffer (pH 7.4) (150 µL) for 5 h at 37 °C with shaking at 100 rpm. Thermal degradation controls for each test compound were kept at 37 °C and 4 °C. Blank control plasma and buffer were included in the incubation. Following incubation, dialysed plasma samples and thermal degradation controls (50 µL) were added to drug-free buffer (50 µL), and dialysed buffer samples (50 µL) were added to drug-free plasma (50 µL). […] Supernatant (150 µL) was added to 50 µL deionised water and samples were analysed by UPLC-MS/MS as described above. Dialysed buffer from each well was tested for protein contamination using BCA protein assay reagent to determine whether membranes had been compromised.
# Bu = Analyte/IS ratio determined in buffer side (2) Fraction unbound, fu=(100−% bound)/100
# [5] = Short-term plasma stability with and without esterase inhibitors; settings: 3 h, 37 °C
# [6] = pHHeps, 99x10^6 hepatocytes per gram liver
# [7] = pHLM, scaling factor 32 mg microsomal protein per gram liver
# [8] = pHLM, scaling factor 45 mg microsomal protein per gram liver
smiles,measurement,setting,value
NC(=O)[C@H](Cc1ccccc1)NC(=O)c1nn(CCCCCF)c2ccccc12 [5F-APP-PINACA],CLint micr,[1],0.202 mL/min/mg
same,t1/2,[1],3.4 min
CC(C)(NC(=O)c1cn(CCCCCF)c2ccccc12)c1ccccc1 [5F-Cumyl-PICA],CLint micr,[1],0.39 mL/min/mg
same,t1/2,[1],1.77 min
"COC(=O)[C@H](NC(=O)c1nn(CCCCF)c2ccccc12)C(C)(C)C [(R)-4F-MDMB-BINACA (4), methyl 2-[1-(4-fluorobutyl)-1H-indazole-3-carboxamido]-3,3-dimethylbutanoate]","Predicted In Vivo Hepatic Clearance, CLH","[2]; from pHHeps CLint, well-stirred model with plasma fu, Q 21 mL min^−1 kg^−1",8.77 ± 1.43 mL/min/kg
same,"Hepatic extraction ratio, EH",[2]; from pHHeps incubations,0.42 ± 0.068
same,T1/2,"[2]; pHHeps 0.25 million cells mL^−1, 0.5 µM, 37 °C, n ≥ 3 ± SD",58 ± 17.2 min
same,"Hepatic extraction ratio, EH",[2]; [6],0.40 ± 0.067
same,"Predicted in vivo hepatic clearance, CLH",[2]; [6],8.38 ± 1.40 mL/min/kg
same,"% parent compound remaining, Average","[2]; pHHeps, 3 min",89.2%
same,"% parent compound remaining, Average","[2]; pHHeps, 6 min",84.6%
same,"% parent compound remaining, Average","[2]; pHHeps, 9 min",91.0%
same,"% parent compound remaining, Average","[2]; pHHeps, 15 min",82.6%
same,"% parent compound remaining, Average","[2]; pHHeps, 30 min",65.7%
same,"% parent compound remaining, Average","[2]; pHHeps, 45 min",48.5%
same,"% parent compound remaining, Average","[2]; pHHeps, 60 min",37.9%
same,"Intrinsic clearance, CLint","[2]; pHHeps, alternative hepatocyte cell density 99x10^6 hepatocytes per gram liver",128 ± 34.6 mL/min/kg
same,"Predicted In Vivo Hepatic Clearance, CLH","[3]; from pHLM CLint, well-stirred model with plasma fu, Q 21 mL min^−1 kg^−1",8.55 ± 0.24 mL/min/kg
same,"Hepatic extraction ratio, EH",[3]; from pHLM incubations,0.41 ± 0.012
same,T1/2,"[3]; pHLM 0.5 mg mL^−1, 0.5 µM, NADPH, 37 °C, n ≥ 3 ± SD",14 ± 0.68 min
same,"% parent compound remaining, Average","[3]; pHLM, 3 min",78.8%
same,"% parent compound remaining, Average","[3]; pHLM, 6 min",72.8%
same,"% parent compound remaining, Average","[3]; pHLM, 9 min",54.1%
same,"% parent compound remaining, Average","[3]; pHLM, 15 min",48.4%
same,"% parent compound remaining, Average","[3]; pHLM, 30 min",26.6%
same,"Intrinsic clearance, CLint","[3]; pHLM, alternative microsomal scaling factor 32 mg microsomal protein per gram liver",79 mL/min/kg
same,"Intrinsic clearance, CLint","[3]; pHLM, alternative microsomal scaling factor 45 mg microsomal protein per gram liver",112 mL/min/kg
same,"Microsomal Intrinsic Clearance, CLint micr","[3]; pHLM, n ≥ 3 ± SD",0.096 ± 0.005 mL min^−1 mg Microsomal Protein^−1
same,"Hepatic extraction ratio, EH",[3]; [7],0.30 ± 0.010
same,"Predicted in vivo hepatic clearance, CLH",[3]; [7],6.20 mL/min/kg
same,"Hepatic extraction ratio, EH",[3]; [8],0.37 ± 0.011
same,"Predicted in vivo hepatic clearance, CLH",[3]; [8],7.78 mL/min/kg
same,"fraction unbound at 5 h, 10 µg mL^−1",[4],0.111
same,"Parent Compound Remaining (%), Esterase Inhibitors","[5]; pH 7.4, BNPP and PMSF 500 µM each",96.0 ± 1.7%
same,"Parent Compound Remaining (%), No Esterase Inhibitors","[5]; pH 7.4, pooled human plasma",91.1 ± 6.8%
CCCCCn1nc(C(=O)N[C@H](C(N)=O)C(C)C)c2ccccc21 [AB-PINACA],CLint micr,[1],0.037 mL/min/mg
same,t1/2,[1],18.7 min
same,CLint,[1],35 mL/min/kg
"CCCCCn1nc(C(=O)N[C@H](C(=O)OC)C(C)C)c2ccccc21 [AMB-PINACA, methyl (1-pentyl-1H-indazole-3-carbonyl)valinate]",t1/2,[1],1.1 min
O=C(c1cccc2ccccc12)c1nc2ccccc2n1CCCCCF [BIM-2201],CLint micr,[1],0.142 mL/min/mg
same,t1/2,[1],4.9 min
same,CLint,[1],134.1 mL/min/kg
CC(C)[C@H](NC(=O)c1nn(CCCCCF)c2ccccc12)C(N)=O [Compound 5F-AB-PINACA],CLint micr,[1],0.019 mL/min/mg
same,t1/2,[1],35.9 min
same,CLint,[1],18 mL/min/kg
NC(=O)[C@H](Cc1ccccc1)NC(=O)c1cn(CCCCCF)c2ccccc12 [Compound 5F-APP-PICA],CLint micr,[1],0.046 mL/min/mg
same,t1/2,[1],15.1 min
"CCCCCn1cc(C(=O)NC(C)(C)c2ccccc2)c2ccccc21 [Cumyl-PICA, 1-pentyl-N-(2-phenylpropan-2-yl)-1H-indole-3-carboxamide]",CLint micr,[1],0.12 mL/min/mg
same,t1/2,[1],5.92 min
O=C(Oc1cccc2ccccc12)c1cn(Cc2ccc(F)cc2)c2ccccc12 [FDU-PB-22],CLint micr,[1],0.056 mL/min/mg
same,t1/2,[1],12.4 min
same,CLint,[1],52.7 mL/min/kg
O=C(Oc1cccc2cccnc12)c1cn(Cc2ccc(F)cc2)c2ccccc12 [FUB-PB-22],CLint micr,[1],0.060 mL/min/mg
same,t1/2,[1],11.5 min
same,CLint,[1],57.1 mL/min/kg
CCCCCn1nc(C(=O)Nc2cccc3ccccc23)c2ccccc21 [MN-18],CLint micr,[1],0.410 mL/min/mg
same,t1/2,[1],1.71 min
same,CLint,[1],469 mL/min/kg
O=C(Oc1cccc2ccccc12)c1cn(CCCCCF)c2ccccc12 [NM-2201],CLint micr,[1],0.088 mL/min/mg
same,t1/2,[1],8.0 min
same,CLint,[1],81.6 mL/min/kg
CCCCCn1cc(C(=O)Nc2cccc3ccccc23)c2ccccc21 [NNEI],CLint micr,[1],0.300 mL/min/mg
same,t1/2,[1],2.29 min
same,CLint,[1],350 mL/min/kg
"O=C(NC12CC3CC(CC(C3)C1)C2)c1cn(CCCCCF)c2ccccc12 [STS-135, N-(adamantan-1-yl)-1-(5-fluoropentyl)-1H-indole-3-carboxamide]",CLint micr,[1],0.222 mL/min/mg
same,t1/2,[1],3.1 min
same,CLint,[1],209 mL/min/kg
CCCCCn1nc(C(=O)c2cccc3ccccc23)c2ccccc21 [THJ-018],CLint micr,[1],0.036 mL/min/mg
same,t1/2,[1],19.2 min
same,CLint,[1],34.2 mL/min/kg
O=C(c1cccc2ccccc12)c1nn(CCCCCF)c2ccccc12 [THJ-2201],CLint micr,[1],0.064 mL/min/mg
same,t1/2,[1],10.8 min
same,CLint,[1],60.8 mL/min/kg
"COC(=O)C1=C(C)NC(C)=C(C(=O)OCCN(C)Cc2ccccc2)C1c1cccc([N+](=O)[O-])c1 (centres unmarked) [nicardipine, reference compound]","fraction unbound at 5 h, 10 µg mL^−1",[4],0.023
